Laboratory results from ChEMBL document CHEMBL4806963, “Antagonistic peptides for frizzled-1 and frizzled-2” (2013).
Activity calls are given as the source filed them. The calls are words filed in the database; no cut-off is given here. Where a SMILES comes first, the peptide text is derived from it. Bridges are numbered along the chain shown (N, C = ends).

Legend:
[1] = target: Frizzled-2 (Homo sapiens) (UniProt Q14332); test: Antagonist activity at Wnt3a-stimulated frizzled-2 (unknown origin) expressed in human HEK293superTOP flash cells incubated for 24 hrs by luciferase reporter gene assay; assay type: functional, cell-based; conditions: HEK293
Sequence of Frizzled-2 (Homo sapiens) (Q14332 24-565 limits assumed): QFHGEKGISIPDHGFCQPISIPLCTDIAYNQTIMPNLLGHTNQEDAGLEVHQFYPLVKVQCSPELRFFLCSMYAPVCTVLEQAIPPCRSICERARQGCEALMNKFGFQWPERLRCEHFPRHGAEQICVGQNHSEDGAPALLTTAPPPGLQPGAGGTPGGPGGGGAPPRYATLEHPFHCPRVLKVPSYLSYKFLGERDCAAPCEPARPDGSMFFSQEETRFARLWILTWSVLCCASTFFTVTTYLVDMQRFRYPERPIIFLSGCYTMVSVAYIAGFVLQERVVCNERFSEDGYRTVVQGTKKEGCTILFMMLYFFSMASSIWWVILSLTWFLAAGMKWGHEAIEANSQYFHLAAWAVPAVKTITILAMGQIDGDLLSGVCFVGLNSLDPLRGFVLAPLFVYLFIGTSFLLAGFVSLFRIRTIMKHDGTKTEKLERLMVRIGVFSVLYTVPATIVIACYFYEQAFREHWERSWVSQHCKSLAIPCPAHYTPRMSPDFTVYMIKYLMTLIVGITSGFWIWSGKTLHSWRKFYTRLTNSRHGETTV

[2] = target: Frizzled-1 (Homo sapiens) (UniProt Q9UP38); test: Agonist activity at frizzled-1 (unknown origin) expressed in human HEK293superTOP flash cells by luciferase reporter gene assay; assay type: functional, cell-based; conditions: HEK293
Sequence of Frizzled-1 (Homo sapiens) (Q9UP38 70-647 limits assumed): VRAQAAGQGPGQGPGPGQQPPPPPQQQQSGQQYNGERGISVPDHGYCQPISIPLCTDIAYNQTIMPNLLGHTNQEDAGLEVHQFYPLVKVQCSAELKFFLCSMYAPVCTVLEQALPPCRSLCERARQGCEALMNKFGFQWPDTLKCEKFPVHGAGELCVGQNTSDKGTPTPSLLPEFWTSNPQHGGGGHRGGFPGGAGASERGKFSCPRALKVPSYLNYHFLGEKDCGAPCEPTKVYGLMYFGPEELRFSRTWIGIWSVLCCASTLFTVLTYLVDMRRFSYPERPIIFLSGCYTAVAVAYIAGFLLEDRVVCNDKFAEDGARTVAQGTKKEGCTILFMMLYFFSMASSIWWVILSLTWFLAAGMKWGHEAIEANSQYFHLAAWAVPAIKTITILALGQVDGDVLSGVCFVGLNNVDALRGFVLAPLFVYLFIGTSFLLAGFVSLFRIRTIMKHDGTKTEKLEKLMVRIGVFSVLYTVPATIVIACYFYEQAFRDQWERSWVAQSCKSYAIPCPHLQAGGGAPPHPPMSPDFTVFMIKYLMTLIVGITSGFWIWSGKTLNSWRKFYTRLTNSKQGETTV

[3] = target: Frizzled-2 (Homo sapiens) (UniProt Q14332); test: Agonist activity at frizzled-2 (unknown origin) expressed in human HEK293superTOP flash cells by luciferase reporter gene assay; assay type: functional, cell-based; conditions: HEK293
[4] = target: Frizzled-1 (Homo sapiens) (UniProt Q9UP38); test: Antagonist activity at Wnt3a-stimulated frizzled-1 (unknown origin) expressed in human HEK293superTOP flash cells incubated for 24 hrs by luciferase reporter gene assay; assay type: functional, cell-based; conditions: HEK293
[5] = target: Frizzled-1 (Homo sapiens) (UniProt Q9UP38); test: Antagonist activity at Wnt3a-stimulaed frizzled-1 (unknown origin) expressed in human HEK293superTOP flash cells at 1 nM incubated for 24 hrs by luciferase reporter gene assay (reference value: 0%); assay type: functional, cell-based; conditions: HEK293, filed as antagonist
[6] = target: Frizzled-1 (Rattus norvegicus) (UniProt Q08463); test: Antagonist activity at Wnt3a-stimulated rat frizzled-1 expressed in African green monkey COS7 cells up to 10 uM incubated for 24 hrs by luciferase reporter gene assay; assay type: cell-based; conditions: dose microM <=10, time 24.0 hrs
Sequence of Frizzled-1 (Rattus norvegicus) (Q08463 whole entry): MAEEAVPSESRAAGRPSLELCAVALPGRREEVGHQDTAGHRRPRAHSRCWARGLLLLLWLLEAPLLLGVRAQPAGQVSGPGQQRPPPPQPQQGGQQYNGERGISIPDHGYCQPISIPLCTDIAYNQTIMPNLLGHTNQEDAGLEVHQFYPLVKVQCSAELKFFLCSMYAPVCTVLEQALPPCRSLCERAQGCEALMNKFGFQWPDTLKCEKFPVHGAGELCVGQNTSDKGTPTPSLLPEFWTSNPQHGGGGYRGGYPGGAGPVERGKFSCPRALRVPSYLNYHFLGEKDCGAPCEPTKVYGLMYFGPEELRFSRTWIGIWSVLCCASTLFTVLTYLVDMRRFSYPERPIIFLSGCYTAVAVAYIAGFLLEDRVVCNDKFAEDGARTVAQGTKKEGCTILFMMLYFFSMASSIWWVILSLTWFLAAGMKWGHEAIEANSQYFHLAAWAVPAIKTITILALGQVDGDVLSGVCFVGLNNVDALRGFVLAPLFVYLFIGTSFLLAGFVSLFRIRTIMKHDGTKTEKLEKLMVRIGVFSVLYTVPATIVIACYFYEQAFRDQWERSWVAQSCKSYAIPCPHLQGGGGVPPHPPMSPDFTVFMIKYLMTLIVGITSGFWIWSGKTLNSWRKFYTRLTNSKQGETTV

[7] = target: Frizzled-2 (Rattus norvegicus) (UniProt Q08464); test: Antagonist activity at Wnt3a-stimulated rat frizzled-2 expressed in […] cells up to 10 uM incubated for 24 hrs by luciferase reporter gene assay; assay type: cell-based; conditions: dose microM <=10, time 24.0 hrs
Sequence of Frizzled-2 (Rattus norvegicus) (Q08464 29-570 limits assumed): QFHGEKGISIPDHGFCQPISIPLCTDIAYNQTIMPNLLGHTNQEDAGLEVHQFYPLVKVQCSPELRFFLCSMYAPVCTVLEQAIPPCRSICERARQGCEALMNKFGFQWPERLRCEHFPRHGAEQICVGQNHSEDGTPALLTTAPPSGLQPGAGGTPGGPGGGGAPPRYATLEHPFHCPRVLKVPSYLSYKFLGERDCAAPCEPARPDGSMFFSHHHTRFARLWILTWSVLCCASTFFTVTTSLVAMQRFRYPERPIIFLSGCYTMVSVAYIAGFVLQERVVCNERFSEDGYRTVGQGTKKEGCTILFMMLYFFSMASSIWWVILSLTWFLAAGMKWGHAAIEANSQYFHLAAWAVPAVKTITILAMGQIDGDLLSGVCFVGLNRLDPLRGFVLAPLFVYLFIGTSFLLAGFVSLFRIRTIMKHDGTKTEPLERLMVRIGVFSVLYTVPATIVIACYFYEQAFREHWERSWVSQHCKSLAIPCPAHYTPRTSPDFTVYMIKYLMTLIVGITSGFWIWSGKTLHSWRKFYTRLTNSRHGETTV

[8] = target: Frizzled-2 (Homo sapiens) (UniProt Q14332); test: Antagonist activity at Wnt3a-stimulated frizzled-2 (unknown origin) expressed in human HEK293superTOP flash cells at 10 nM incubated for 24 hrs by luciferase reporter gene assay; assay type: functional, cell-based; conditions: HEK293
[9] = target: Frizzled-2 (Homo sapiens) (UniProt Q14332); test: Antagonist activity at Wnt3a-stimulaed frizzled-2 (unknown origin) expressed in human HEK293superTOP flash cells at 1 nM incubated for 24 hrs by luciferase reporter gene assay (reference value: 0%); assay type: functional, cell-based; conditions: HEK293, filed as antagonist
[10] = target: Frizzled-1 (Homo sapiens) (UniProt Q9UP38); test: Antagonist activity at Wnt3a-stimulated frizzled-1 (unknown origin) expressed in human HEK293superTOP flash cells at 10 nM incubated for 24 hrs by luciferase reporter gene assay; assay type: functional, cell-based; conditions: HEK293
[11] = target: Frizzled-1 (Rattus norvegicus) (UniProt Q08463); test: Antagonist activity at Wnt3a-stimulated rat frizzled-1 expressed in CHO cells up to 10 uM incubated for 24 hrs by luciferase reporter gene assay; assay type: cell-based; conditions: dose microM <=10, time 24.0 hrs
[12] = target: Frizzled-2 (Rattus norvegicus) (UniProt Q08464); test: Antagonist activity at Wnt3a-stimulated rat frizzled-2 expressed in African green monkey COS7 cells up to 10 uM incubated for 24 hrs by luciferase reporter gene assay; assay type: cell-based; conditions: dose microM <=10, time 24.0 hrs
[13] = target: T1, Frizzled-4 (Homo sapiens) (UniProt Q9ULV1); test: Agonist activity at frizzled-4 (unknown origin) expressed in human HEK293superTOP flash cells by luciferase reporter gene assay; assay type: functional, cell-based; conditions: HEK293
T1 sequence (whole entry): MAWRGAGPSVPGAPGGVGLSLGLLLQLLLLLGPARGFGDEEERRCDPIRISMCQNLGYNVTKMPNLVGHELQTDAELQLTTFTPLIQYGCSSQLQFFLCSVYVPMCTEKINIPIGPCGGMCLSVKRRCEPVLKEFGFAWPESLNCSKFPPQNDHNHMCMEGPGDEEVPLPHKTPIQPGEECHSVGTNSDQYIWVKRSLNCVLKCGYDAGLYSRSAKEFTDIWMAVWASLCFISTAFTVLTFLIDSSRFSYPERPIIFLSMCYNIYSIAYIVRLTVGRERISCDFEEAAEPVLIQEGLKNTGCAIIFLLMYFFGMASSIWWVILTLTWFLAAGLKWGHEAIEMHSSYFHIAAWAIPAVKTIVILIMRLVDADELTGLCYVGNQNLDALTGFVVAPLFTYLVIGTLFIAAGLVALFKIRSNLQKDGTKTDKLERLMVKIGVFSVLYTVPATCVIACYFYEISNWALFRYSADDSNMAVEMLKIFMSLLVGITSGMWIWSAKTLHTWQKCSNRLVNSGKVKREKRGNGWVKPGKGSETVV

[14] = target: Frizzled-5 (Homo sapiens) (UniProt Q13467); test: Agonist activity at frizzled-5 (unknown origin) expressed in human HEK293superTOP flash cells by luciferase reporter gene assay; assay type: functional, cell-based; conditions: HEK293
Sequence of Frizzled-5 (Homo sapiens) (Q13467 whole entry): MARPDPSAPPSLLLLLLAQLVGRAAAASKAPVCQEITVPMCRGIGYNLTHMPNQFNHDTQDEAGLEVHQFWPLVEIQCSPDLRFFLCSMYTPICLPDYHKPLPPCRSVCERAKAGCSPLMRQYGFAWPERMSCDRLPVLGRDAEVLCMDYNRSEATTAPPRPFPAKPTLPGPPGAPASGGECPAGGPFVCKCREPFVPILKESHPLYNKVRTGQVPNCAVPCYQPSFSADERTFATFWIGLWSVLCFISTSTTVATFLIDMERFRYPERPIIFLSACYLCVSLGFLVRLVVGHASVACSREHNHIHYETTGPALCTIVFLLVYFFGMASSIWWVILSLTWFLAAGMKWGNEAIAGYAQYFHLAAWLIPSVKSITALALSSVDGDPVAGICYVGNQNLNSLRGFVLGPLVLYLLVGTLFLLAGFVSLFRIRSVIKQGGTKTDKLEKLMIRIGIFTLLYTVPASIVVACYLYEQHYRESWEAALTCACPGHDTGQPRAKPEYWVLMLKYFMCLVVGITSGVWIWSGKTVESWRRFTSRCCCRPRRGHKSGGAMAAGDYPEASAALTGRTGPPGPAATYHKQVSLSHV

[15] = target: Frizzled-1 (Rattus norvegicus) (UniProt Q08463); test: Antagonist activity at Wnt3a-stimulated rat frizzled-1 expressed in African green monkey COS7 cells incubated for 24 hrs by luciferase reporter gene assay relative to control; assay type: cell-based; conditions: filed as antagonist, concentration not given here
[16] = target: Frizzled-2 (Rattus norvegicus) (UniProt Q08464); test: Antagonist activity at Wnt3a-stimulated rat frizzled-2 expressed in human HEK293superTOP flash cells at 10 nM incubated for 24 hrs by luciferase reporter gene assay relative to control; assay type: cell-based; conditions: HEK293, filed as antagonist
[17] = target: Frizzled-2 (Rattus norvegicus) (UniProt Q08464); test: Agonist activity at rat frizzled-2 expressed in CHO cells by luciferase reporter gene assay; assay type: cell-based
[18] = target: Frizzled-2 (Rattus norvegicus) (UniProt Q08464); test: Agonist activity at rat frizzled-2 expressed in African green monkey COS7 cells by luciferase reporter gene assay; assay type: cell-based
[19] = target: Frizzled-1 (Rattus norvegicus) (UniProt Q08463); test: Agonist activity at rat frizzled-1 expressed in African green monkey COS7 cells by luciferase reporter gene assay; assay type: cell-based
[20] = target: Frizzled-1 (Rattus norvegicus) (UniProt Q08463); test: Agonist activity at rat frizzled-1 expressed in human HEK293superTOP flash cells by luciferase reporter gene assay; assay type: cell-based; conditions: HEK293
[21] = target: Frizzled-1 (Rattus norvegicus) (UniProt Q08463); test: Antagonist activity at Wnt3a-stimulated rat frizzled-1 expressed in CHO cells incubated for 24 hrs by luciferase reporter gene assay relative to control; assay type: cell-based; conditions: filed as antagonist, concentration not given here
[22] = target: Frizzled-1 (Rattus norvegicus) (UniProt Q08463); test: Agonist activity at rat frizzled-1 expressed in CHO cells by luciferase reporter gene assay; assay type: cell-based
[23] = target: Frizzled-1 (Rattus norvegicus) (UniProt Q08463); test: Antagonist activity at Wnt3a-stimulated rat frizzled-1 expressed in human HEK293superTOP flash cells at 10 nM incubated for 24 hrs by luciferase reporter gene assay relative to control; assay type: cell-based; conditions: HEK293, filed as antagonist
[24] = target: Frizzled-2 (Rattus norvegicus) (UniProt Q08464); test: Antagonist activity at Wnt3a-stimulated rat frizzled-2 expressed in CHO cells incubated for 24 hrs by luciferase reporter gene assay relative to control; assay type: cell-based; conditions: filed as antagonist, concentration not given here
[25] = target: Frizzled-2 (Rattus norvegicus) (UniProt Q08464); test: Agonist activity at rat frizzled-2 expressed in human HEK293superTOP flash cells by luciferase reporter gene assay; assay type: cell-based; conditions: HEK293
[26] = target: Frizzled-2 (Rattus norvegicus) (UniProt Q08464); test: Antagonist activity at Wnt3a-stimulated rat frizzled-2 expressed in African green monkey COS7 cells incubated for 24 hrs by luciferase reporter gene assay relative to control; assay type: cell-based; conditions: filed as antagonist, concentration not given here

## CC(=O)N[C@@H](CS)C(=O)N[C@@H](CCCCN)C(=O)N[C@@H](CS)C(=O)N[C@@H](Cc1cnc[nH]1)C(=O)NCC(=O)N[C@H](C(=O)N[C@@H](CO)C(=O)NCC(=O)N[C@@H](CO)C(=O)N[C@@H](CS)C(=O)N[C@H](C(=O)N[C@H](C(=O)N[C@@H](CCCCN)C(=O)N[C@H](C(=O)N[C@@H](CS)C(=O)N[C@@H](Cc1c[nH]c2ccccc12)C(N)=O)[C@@H](C)O)C(C)C)[C@@H](C)O)C(C)C (Ac-CKCHGVSGSCTVKTCW-NH2)
[1]
  inhibition: inactive
[2]
  Activity: inactive
[3]
  Activity: inactive
[4]
  inhibition: inactive

## CSCC[C@H](NC(=O)CNC(=O)[C@H](CO)NC(=O)[C@H](CCCCN)NC(=O)[C@H](CC(N)=O)NC(=O)[C@H](CS)NC(C)=O)C(=O)N[C@@H](CC(=O)O)C(=O)NCC(=O)N[C@@H](CS)C(=O)N[C@@H](CCC(=O)O)C(=O)N[C@@H](CC(C)C)C(N)=O (Ac-CNKSGMDGCEL-NH2)
[1]
  inhibition: inactive
[2]
  Activity: inactive
[3]
  Activity: inactive
[4]
  inhibition: inactive

## CSCC[C@H](NC(=O)CNC(=O)[C@H](CCC(=O)O)NC(=O)[C@H](CO)NC(=O)[C@@H](NC(=O)[C@H](CCCCN)NC(=O)[C@H](CC(N)=O)NC(=O)[C@H](CS)NC(C)=O)[C@@H](C)O)C(=O)N[C@@H](CC(=O)O)C(=O)NCC(=O)N[C@@H](CS)C(=O)N[C@@H](CCC(=O)O)C(=O)N[C@@H](C)C(N)=O (Ac-CNKTSEGMDGCEA-NH2)
[5]
  inhibition: 65.9%
[6]
  inhibition: inactive
[7]
  inhibition: inactive
[8]
  inhibition: inactive
[9]
  inhibition: 86.5%
[10]
  inhibition: inactive
[11]
  inhibition: inactive
[12]
  inhibition: inactive

## CSCC[C@@H]1NC(=O)CNC(=O)[C@H](CCC(=O)O)NC(=O)[C@H](CO)NC(=O)[C@H]([C@@H](C)O)NC(=O)[C@H](CCCCN)NC(=O)[C@H](CC(N)=O)NC(=O)[C@@H](NC(C)=O)CSSC[C@@H](C(=O)N[C@@H](CCC(=O)O)C(=O)N[C@@H](CC(C)C)C(N)=O)NC(=O)CNC(=O)[C@H](CC(=O)O)NC1=O (Ac-CNKTSEGMDGCEL-NH2; disulfide 1-11)
[13]
  Activity: inactive
[14]
  Activity: inactive

## CC[C@H](C)[C@H](NC(=O)CNC(C)=O)C(=O)N[C@@H](CCCCN)C(=O)N[C@@H](CCC(=O)O)C(=O)N[C@@H](CS)C(=O)N[C@@H](CCC(N)=O)C(=O)N[C@@H](Cc1ccc(O)cc1)C(=O)N[C@@H](CCC(N)=O)C(=O)N[C@@H](Cc1ccccc1)C(=O)N[C@@H](CCCNC(=N)N)C(=O)N[C@@H](Cc1c[nH]cn1)C(=O)N[C@@H](CCCNC(=N)N)C(=O)N[C@@H](CCCNC(=N)N)C(=O)N[C@@H](Cc1c[nH]c2ccccc12)C(=O)N[C@@H](CC(N)=O)C(=O)N[C@@H](CS)C(=O)N[C@@H](CO)C(=O)N[C@H](C(=O)N[C@H](C(=O)N[C@@H](CC(=O)O)C(N)=O)C(C)C)[C@@H](C)O (Ac-GIKECQYQFRHRRWNCSTVD-NH2)
[15]
  inhibition: 100%
[16]
  inhibition: 100%
[17]
  Activity: inactive
[18]
  Activity: inactive
[19]
  Activity: inactive
[20]
  Activity: inactive
[21]
  inhibition: 100%
[22]
  Activity: inactive
[23]
  inhibition: 100%
[24]
  inhibition: 100%
[25]
  Activity: inactive
[26]
  inhibition: 100%

## CC[C@H](C)[C@H](NC(C)=O)C(=O)N[C@@H](CCC(=O)O)C(=O)N[C@@H](CCC(=O)O)C(=O)N[C@@H](CS)C(=O)N[C@@H](CCC(N)=O)C(=O)N[C@@H](Cc1cnc[nH]1)C(=O)N[C@@H](CCC(N)=O)C(=O)N[C@@H](Cc1ccccc1)C(=O)N[C@@H](CCCNC(=N)N)C(=O)N[C@@H](CC(=O)O)C(=O)N[C@@H](CCCNC(=N)N)C(=O)N[C@@H](CCCNC(=N)N)C(=O)N[C@@H](Cc1c[nH]c2ccccc12)C(=O)N[C@@H](CC(N)=O)C(=O)N[C@@H](CS)C(N)=O (Ac-IEECQHQFRDRRWNC-NH2)
[1]
  inhibition: inactive
[2]
  Activity: inactive
[3]
  Activity: inactive
[4]
  inhibition: inactive

## CC[C@H](C)[C@H](NC(=O)CNC(=O)[C@H](Cc1cnc[nH]1)NC(=O)[C@H](CO)NC(=O)[C@H](CO)NC(=O)[C@@H](NC(=O)[C@H](CC(N)=O)NC(=O)[C@@H](N)CS)C(C)C)C(=O)N[C@@H](CC(=O)O)C(=O)NCC(=O)N[C@@H](CS)C(=O)N[C@@H](CC(=O)O)C(=O)N[C@@H](CC(C)C)C(=O)O (H-CNVSSHGIDGCDL-OH)
[5]
  inhibition: 45.3%
[6]
  inhibition: inactive
[7]
  inhibition: inactive
[8]
  inhibition: inactive
[9]
  inhibition: 62.4%
[10]
  inhibition: inactive
[11]
  inhibition: inactive
[12]
  inhibition: inactive

## Ac-ANKTSEGMDGCEL-NH2
[5]
  inhibition: 70.8%
[6]
  inhibition: inactive
[7]
  inhibition: inactive
[8]
  inhibition: inactive
[9]
  inhibition: 82.6%
[10]
  inhibition: inactive
[11]
  inhibition: inactive
[12]
  inhibition: inactive

## Ac-CNKTSEGMDGAEL-NH2
[5]
  inhibition: 67.2%
[6]
  inhibition: inactive
[7]
  inhibition: inactive
[8]
  inhibition: inactive
[9]
  inhibition: 84.9%
[10]
  inhibition: inactive
[11]
  inhibition: inactive
[12]
  inhibition: inactive

## Ac-DLVYFELSPDFCA-NH2
[1]
  inhibition: inactive
[2]
  Activity: inactive
[3]
  Activity: inactive
[4]
  inhibition: inactive

## Ac-GDWEWGECSDNI-NH2
[1]
  inhibition: inactive
[2]
  Activity: inactive
[3]
  Activity: inactive
[4]
  inhibition: inactive

## Ac-GSKGTQGRACN-NH2
[1]
  inhibition: inactive
[2]
  Activity: inactive
[3]
  Activity: inactive
[4]
  inhibition: inactive

## Ac-MNRHNNEAGR-NH2
[1]
  inhibition: inactive
[2]
  Activity: inactive
[3]
  Activity: inactive
[4]
  inhibition: inactive
